Data reported in patent publication US5446023A, “Amphiphilic compounds derived from amino acids or peptides, their methods of synthesis and their application as drug delivery systems” (Alliance Pharmaceutical Corporation, priority 1992, dated 1995).

What was measured:
[1] = Identification of vesicles by (transmission) electronic microscopy, negative staining; assay type: physicochemical; conditions: for formation of vesicles (transmission electronic microscopy): negative staining, after dispersion; for formation of vesicles: procedure of example 14, 10^-2 M; for formation of vesicles / formation of vesicles upon dispersion with water: electronic microscopy; for formation of vesicles upon dispersion with water: 10^-2 M
Procedure: (§1) Product 6a (30 mg) was dissolved in a mixture of chloroform/methanol (1/1 v/v) in a round 4 mL tube. The solvent was evaporated in a rotavapor until a uniform film was obtained. The remaining traces of solvent were eliminated under vacuum. Water for injectable preparations (3.97 mL) was added to the dried product. After stirring with a Vortex for 3 minutes, sonication (BRANSON B30, 7 mm probe, Power 5, pulsed mode 50, 15 minutes) at 20° C. above the phase-transition temperature gave a bluish dispersion.
The formation of vesicles was observed by transmission electronic microscopy by the negative staining method. The lipidic dispersion was applied on a grid covered with FORMVAR membrane. The sample was colored by depositing of a drop of phosphotungstic acid (2%, pH adjusted to 7) for 1 min. The excess acid was removed using a filter paper. The grid was then dried and the sample was examined using a PHILIPS microscope (CM2 Model) at 80 Kv.
FIG. 1 is a micrography obtained in these conditions on a 10^-2 M dispersion of product 6a.

[2] = system: lymphoblastoid cell cultures of the Namalva type; assay: Toxicity on lymphoblastoid cell cultures (Namalva); assay type: cell-based; conditions: 4 days at 37° C.
Procedure: Example 26: The toxicity of products 6a and 6e was determined on lymphoblastoid cell cultures of the Namalva type in an RPMI medium containing 10% of foetal calf serum at 37° C. under 7% CO2, according to the method described by M. Le Blanc et al in Pharm. Res. 195 (1988).

[3] = Differential scanning calorimetry: phase transition temperature and transition enthalpy; assay type: physicochemical
Procedure: The phase transition temperatures and the transition enthalpies were determined after hydration by a known quantity of water using a SETARAM DSC-92 apparatus.
Example 22: Product 6d (16 mg) was hydrated with […] of a mixture of water/ethylene glycol 60/40 (hydratation percentage 28%).
Example 23: Product 6a (10.8 mg) was hydrated with a mixture of water/ethylene glycol 60/40 (hydration percentage 37%).

[4] = assay type: physicochemical; parameters: formation of vesicles after sonication: dose or concentration left out as unconfirmed
Procedure: as §1
An aqueous dispersion of compound 7b ([…], 60 mM) in citric acid (2 ml, 1M pH=4) was prepared (sonication, probe 3 mm, power5, room temperature, 5 min, mean diameter=35 nm). […] Adriamycin (12 ml, 30 mM) was added to the liposomal dispersion. The amount of drug encapsulated, the stability of encapsulation over time and the release of adriamycin were measured.

mice [5] = assay: In vivo toxicity in mice, rapid intraperitoneal injection; conditions: 500 mg/kg
Procedure: (§2) In vivo toxicity of products 6a, 6b, 6c in mice. A rapid intraperitoneal injection was made, of 0.5 mL (25 mL/kg animal body weight, n=10) of a dispersion of these products in physiological water.

[6] = as above; conditions: mouse, in vivo, ip
Procedure: as §2

[7] = Observation of vesicles by electronic microscopy after freeze-fracture; assay type: physicochemical; conditions: 10^-2 M dispersions
Procedure: One drop of lipic dispersion (about […]) was placed on a copper support. Freezing was realized by rapid immersion in liquid propane […]. The fractures were realized using a Balzers BAF 300 at -120° C. under 10^-6 mmHg with a knife cooled to -150° C. The replicas were obtained by depositing a platinum layer (10-20 A) under an angle of 35° then carbon (110-120 A) with an angle of 90°. The replicas were then immersed in water, washed, placed on a copper grid (3 mm, 300 mesh) and examined with a HITACHI 600 electronic microscope (H600) at 75 KV. […] FIG. 2 represents the photomicrographs obtained on 10^-2 M dispersions of products 6b, 7a, 7b.

human erythrocytes = assay: Hemolytic activity on human erythrocytes; assay type: cell-based; conditions: concentration of 50 g/l, 1 hour, 37° C.
Procedure: Example 25: The hemolytic activity of products 6h, 6i was determined by adding 2 mL of a solution of these products in physiological water to an equal volume of a 1% suspension of human erythrocytes in an isotonic phosphate buffer. After an hour of incubation at 37° C. the solutions were centrifuged. The degree of hemolysis was determined spectrophotometrically (540 nm) by comparing the quantity of hemoglobin liberated in the supernatant. Compounds 6h, 6i were not hemolytic at a concentration of 50 g/l.

mice [8] = assay: In vivo toxicity in mice, rapid intravenous injection; conditions: 625 mg/kg, 1 month of observation, 10 mice
Procedure: (§3) Example 24: In vivo toxicity of product 6i in mice. A rapid intravenous injection into the caudal vein, of 0.5 mL (25 mL/kg animal body weight) of a solution of 6i in physiological water, to which Pluronic F-68 was added as dispersant (25/10 g/L, 6i/Pluronic F-68) was made.

[9] = as above; conditions: mouse, in vivo, caudal vein, 25 mL/kg, 6i/Pluronic F-68 25/10 g/L, mice, read-out: tolerated dose
Procedure: as §3

[10] = water/ethylene glycol 60/40, hydration percentage 37%
[11] = intraperitoneal, 1 month of observation, 10 mice
[12] = intraperitoneal, 25 mL/kg dispersion in physiological water, mice, read-out: tolerated dose
[13] = water/ethylene glycol 60/40, hydration percentage 28%, -10° C. to 45° C., 2° C./min

For `C=CCCCCCCCCC(CCCCCCCCCCCC)NC(=O)CNC(=O)[C@H](O)[C@@H](O)[C@H](O[C@@H]1O[C@H](CO)[C@H](O)[C@H](O)[C@H]1O)[C@H](O)CO` (stereo partly drawn) [Product 6a, Nα-[1-lactobionocarbonyl]-N-11[trieicos-1-en-yl] glycinamide], the “formation of vesicles (transmission electronic microscopy)” value [1] was “formation of vesicles was also observed”, the “effect on growth and viability of the cells” value (shortened to “effect on growth and viability”) [2] was “did not affect the growth and viability of the cells” and the “Tc (phase transition temperature)” value [3, 10] was 22 °C. The transition enthalpy [3, 10] was -11.6 mcal/mg, the “stability of dispersion (particle size)” value [4] was “at least 1 month” and the “effect of sterilization on vesicles” value ([4]; 121° C. for 15 minutes) was “did not significantly modify these vesicles”. The “average particle diameter Φ after sterilization” value ([4]; after sterilization at 121° C. for 15 minutes) was 61 nm, the “average particle diameter Φ before sterilization” value ([4]; before sterilization at 121° C. for 15 minutes) was 58 nm and the “average particle diameter Φ” value ([4]; dispersion after sonication 15 min) was 49 nm. For the same compound, the deaths (mice [5]; mouse, in vivo, ip) was “no deaths occurred” and the MTD at 730 h [6] was 500 mg/kg.
For `C=CCCCCCCCCC(CCC(F)(F)C(F)(F)C(F)(F)C(F)(F)C(F)(F)C(F)(F)C(F)(F)C(F)(F)F)NC(=O)CNC(=O)[C@H](O)[C@@H](O)[C@H](O[C@@H]1O[C@H](CO)[C@H](O)[C@H](O)[C@H]1O)[C@H](O)CO` (stereo partly drawn) [Product 6b, N-α-[1-lactobionocarbonyl]-N-3-[1-(perfluooctyl)tridec-12-enyl] glycinamide], the formation of vesicles [1] was “led to the formation of vesicles”, the “formation of vesicles (freeze-fracture)” value [7] was “formation of vesicles was established” and the deaths (mice [5]; [11]) was “no deaths occurred”. The MTD at 730 h [6, 12] was 500 mg/kg.
In the case of `C=CCCCCCCCCC(CCC(F)(F)C(F)(F)C(F)(F)C(F)(F)C(F)(F)C(F)(F)F)NC(=O)CNC(=O)[C@H](O)[C@@H](O)[C@H](O[C@@H]1O[C@H](CO)[C@H](O)[C@H](O)[C@H]1O)[C@H](O)CO` (stereo partly drawn) [Product 6c], the deaths (mice [5]; [11]) is reported as “no deaths occurred” and the MTD at 730 h [6, 12] is reported as 500 mg/kg.
In the case of `CCCCCCCCCCCCC(CCCCCCCCCCC)NC(=O)CNC(=O)[C@H](O)[C@@H](O)[C@H](O[C@@H]1O[C@H](CO)[C@H](O)[C@H](O)[C@H]1O)[C@H](O)CO` (stereo partly drawn) [Product 6d, N-α-1-[lactobionocarbonyl]-N-12-[tetraeicosyl] glycinamide], the formation of vesicles [1] is reported as “led to the formation of vesicles”, the “Tc (phase transition temperature)” value [3, 13] is reported as 14 °C and the transition enthalpy [3, 13] is reported as -10.29 mcal/mg.
With `CCCCCCCCCC(CCC(F)(F)C(F)(F)C(F)(F)C(F)(F)C(F)(F)C(F)(F)F)NC(=O)CNC(=O)[C@H](O)[C@@H](O)[C@H](O[C@@H]1O[C@H](CO)[C@H](O)[C@H](O)[C@H]1O)[C@H](O)CO` (stereo partly drawn) [Product 6e, N-α-1-[lactobionocarbonyl]-N-3-[1-(perfluorohexyl)dodecyl] glycinamide] the “effect on growth and viability” value [2] was “did not affect the growth and viability of the cells”, the “formation of vesicles after sonication” value ([4]; sonication 20 minutes) was “led to the formation of vesicles” and the “average diameter of vesicles after sterilization” value ([4]; sonication 20 minutes, after sterilization) was 318 nm.
With `O=C(CNC(=O)[C@H](O)[C@@H](O)[C@H](O[C@@H]1O[C@H](CO)[C@H](O)[C@H](O)[C@H]1O)[C@H](O)CO)NCCC(F)(F)C(F)(F)C(F)(F)C(F)(F)C(F)(F)C(F)(F)F` [Product 6h, Nα-1-[lactobionocarbonyl]N-1-[2-(perfluorohexyl)ethyl] glycinamide] the “effect on growth and viability” value [2] was “did not affect the growth and viability of the cells” and the hemolytic activity (human erythrocytes) was “not hemolytic”.
In the case of `O=C(CNC(=O)[C@H](O)[C@@H](O)[C@H](O[C@@H]1O[C@H](CO)[C@H](O)[C@H](O)[C@H]1O)[C@H](O)CO)NCCC(F)(F)C(F)(F)C(F)(F)C(F)(F)C(F)(F)C(F)(F)C(F)(F)C(F)(F)F` [Product 6i], the “effect on growth and viability” value [2] is reported as “did not affect the growth and viability of the cells”, the hemolytic activity (human erythrocytes) is reported as “not hemolytic” and the deaths (mice [8]) is reported as “no deaths occurred”. It also gave an MTD at 730 h [9] of 625 mg/kg.
With `CCCCCCCCCC(CCC(F)(F)C(F)(F)C(F)(F)C(F)(F)C(F)(F)C(F)(F)F)NC(=O)CNC(=O)CNC(=O)[C@H](O)[C@@H](O)[C@H](O[C@@H]1O[C@H](CO)[C@H](O)[C@H](O)[C@H]1O)[C@H](O)CO` (stereo partly drawn) [Product 7a] the “formation of vesicles upon dispersion with water” value [1] was “forms monolayered vesicles almost instantaneously”, the “formation of vesicles (transmission electronic microscopy)” value [1] was “formation of vesicles was also observed” and the “formation of vesicles (freeze-fracture)” value [7] was “formation of vesicles was established”.
For `C=CCCCCCCCCC(CCCCCCCCCCCC)NC(=O)CNC(=O)CNC(=O)[C@H](O)[C@@H](O)[C@H](O[C@@H]1O[C@H](CO)[C@H](O)[C@H](O)[C@H]1O)[C@H](O)CO` (stereo partly drawn) [Product 7b, N-α-(N-α-1-lactobionocarbonyl)-glycyl-N-11-(trieicos-1-enyl) glycinamide], the “formation of vesicles upon dispersion with water” value [1] was “forms monolayered vesicles almost instantaneously”, the “formation of vesicles (transmission electronic microscopy)” value [1] was “formation of vesicles was also observed” and the “mean diameter of liposomal dispersion” value ([4]; 60 mM in citric acid 1M pH=4, sonication 5 min, room temperature) was 35 nm. For the same compound, the “formation of vesicles (freeze-fracture)” value [7] was “formation of vesicles was established”.
